How the values were obtained:
Assay type in all cases: biochemical
FLT3 kinase = target: T1, FLT3 kinase (Homo sapiens, UniProt P36888); assay: FLT3 kinase assay (AlphaScreen); conditions: read-out: Ranking of IC50 values, FLT3
T1 construct: purchased SignalChem
T1 sequence (P36888 27-993): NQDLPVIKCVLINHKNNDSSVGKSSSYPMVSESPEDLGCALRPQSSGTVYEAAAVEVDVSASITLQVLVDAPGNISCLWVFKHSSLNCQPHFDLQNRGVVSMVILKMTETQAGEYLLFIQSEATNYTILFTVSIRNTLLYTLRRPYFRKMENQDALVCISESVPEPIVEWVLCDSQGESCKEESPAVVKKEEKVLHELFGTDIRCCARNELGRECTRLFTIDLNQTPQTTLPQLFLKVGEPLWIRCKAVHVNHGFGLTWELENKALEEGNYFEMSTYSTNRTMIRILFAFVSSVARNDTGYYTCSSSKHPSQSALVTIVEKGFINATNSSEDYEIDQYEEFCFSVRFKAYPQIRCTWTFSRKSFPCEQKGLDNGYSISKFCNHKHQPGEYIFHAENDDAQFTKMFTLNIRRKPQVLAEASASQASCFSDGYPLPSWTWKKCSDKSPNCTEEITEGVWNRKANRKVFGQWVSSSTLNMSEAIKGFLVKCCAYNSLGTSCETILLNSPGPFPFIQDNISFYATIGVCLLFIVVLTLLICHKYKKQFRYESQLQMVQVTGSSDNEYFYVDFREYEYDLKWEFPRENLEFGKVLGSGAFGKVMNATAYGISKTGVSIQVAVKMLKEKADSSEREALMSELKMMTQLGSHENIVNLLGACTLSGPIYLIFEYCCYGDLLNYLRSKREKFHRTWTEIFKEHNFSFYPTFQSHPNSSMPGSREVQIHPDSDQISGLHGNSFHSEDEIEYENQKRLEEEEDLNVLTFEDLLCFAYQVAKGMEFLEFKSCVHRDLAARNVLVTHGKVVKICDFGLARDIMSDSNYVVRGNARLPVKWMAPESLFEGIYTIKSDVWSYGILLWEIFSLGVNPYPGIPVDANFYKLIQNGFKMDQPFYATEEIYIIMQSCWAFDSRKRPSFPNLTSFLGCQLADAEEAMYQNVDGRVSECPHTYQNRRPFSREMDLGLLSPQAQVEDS
Method in brief: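 Recombinant FLT3 (1.5 ng) phosphorylated biotinylated poly(Glu4:Tyr1) with 10 μM ATP in MOPS pH 7.0 buffer containing 10 mM MgCl2, 30 min at 30 °C, stopped with EDTA. Product detected by AlphaScreen; IC50 from duplicate serial dilutions.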

PDGFRα kinase = target: T2, PDGFRα kinase (Homo sapiens, UniProt P16234); assay: PDGFRα kinase assay (AlphaScreen); conditions: read-out: Ranking of IC50 values, PDGFRα
T2 construct: purchased SignalChem
T2 sequence (P16234 24-1089): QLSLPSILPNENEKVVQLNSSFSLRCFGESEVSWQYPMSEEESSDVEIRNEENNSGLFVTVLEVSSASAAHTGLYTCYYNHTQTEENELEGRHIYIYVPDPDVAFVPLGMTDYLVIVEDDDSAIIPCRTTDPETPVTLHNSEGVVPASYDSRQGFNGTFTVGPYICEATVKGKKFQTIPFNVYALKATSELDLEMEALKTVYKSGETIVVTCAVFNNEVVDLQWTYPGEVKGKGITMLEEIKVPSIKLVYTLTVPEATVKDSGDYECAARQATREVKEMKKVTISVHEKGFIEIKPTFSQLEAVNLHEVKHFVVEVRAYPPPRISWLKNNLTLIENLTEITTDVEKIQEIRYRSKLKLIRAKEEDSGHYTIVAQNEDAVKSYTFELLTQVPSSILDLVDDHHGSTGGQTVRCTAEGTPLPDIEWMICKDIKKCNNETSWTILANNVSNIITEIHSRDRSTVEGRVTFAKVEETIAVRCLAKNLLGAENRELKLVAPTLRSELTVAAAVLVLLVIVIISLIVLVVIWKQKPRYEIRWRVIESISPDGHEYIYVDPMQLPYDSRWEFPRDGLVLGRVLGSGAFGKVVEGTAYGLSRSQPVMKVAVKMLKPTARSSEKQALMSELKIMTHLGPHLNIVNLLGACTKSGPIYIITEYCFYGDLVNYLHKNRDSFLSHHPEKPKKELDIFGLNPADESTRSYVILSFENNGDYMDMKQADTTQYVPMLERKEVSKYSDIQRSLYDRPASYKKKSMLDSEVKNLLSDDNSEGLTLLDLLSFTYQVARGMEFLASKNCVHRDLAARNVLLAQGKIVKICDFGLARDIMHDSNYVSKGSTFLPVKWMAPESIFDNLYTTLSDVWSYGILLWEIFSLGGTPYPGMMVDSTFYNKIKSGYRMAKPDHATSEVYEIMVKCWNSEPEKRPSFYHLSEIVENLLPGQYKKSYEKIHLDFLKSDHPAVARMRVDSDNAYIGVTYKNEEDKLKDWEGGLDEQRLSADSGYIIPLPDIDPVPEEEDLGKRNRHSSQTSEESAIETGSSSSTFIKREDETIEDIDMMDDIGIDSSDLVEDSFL
Method in brief: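 Recombinant PDGFRα (1.5 ng) phosphorylated biotinylated poly(Glu4:Tyr1) with 10 μM ATP in MOPS pH 7.0 with 10 mM MgCl2, 30 min at 30 °C, stopped with EDTA. Product detected by AlphaScreen; IC50 from serial dilutions run in duplicate.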

MET kinase = target: T3, MET kinase (Homo sapiens, UniProt P08581); assay: MET kinase assay (AlphaScreen, counter screen); conditions: read-out: Ranking of IC50 values, MET
T3 construct: purchased SignalChem
T3 sequence (P08581 25-1390): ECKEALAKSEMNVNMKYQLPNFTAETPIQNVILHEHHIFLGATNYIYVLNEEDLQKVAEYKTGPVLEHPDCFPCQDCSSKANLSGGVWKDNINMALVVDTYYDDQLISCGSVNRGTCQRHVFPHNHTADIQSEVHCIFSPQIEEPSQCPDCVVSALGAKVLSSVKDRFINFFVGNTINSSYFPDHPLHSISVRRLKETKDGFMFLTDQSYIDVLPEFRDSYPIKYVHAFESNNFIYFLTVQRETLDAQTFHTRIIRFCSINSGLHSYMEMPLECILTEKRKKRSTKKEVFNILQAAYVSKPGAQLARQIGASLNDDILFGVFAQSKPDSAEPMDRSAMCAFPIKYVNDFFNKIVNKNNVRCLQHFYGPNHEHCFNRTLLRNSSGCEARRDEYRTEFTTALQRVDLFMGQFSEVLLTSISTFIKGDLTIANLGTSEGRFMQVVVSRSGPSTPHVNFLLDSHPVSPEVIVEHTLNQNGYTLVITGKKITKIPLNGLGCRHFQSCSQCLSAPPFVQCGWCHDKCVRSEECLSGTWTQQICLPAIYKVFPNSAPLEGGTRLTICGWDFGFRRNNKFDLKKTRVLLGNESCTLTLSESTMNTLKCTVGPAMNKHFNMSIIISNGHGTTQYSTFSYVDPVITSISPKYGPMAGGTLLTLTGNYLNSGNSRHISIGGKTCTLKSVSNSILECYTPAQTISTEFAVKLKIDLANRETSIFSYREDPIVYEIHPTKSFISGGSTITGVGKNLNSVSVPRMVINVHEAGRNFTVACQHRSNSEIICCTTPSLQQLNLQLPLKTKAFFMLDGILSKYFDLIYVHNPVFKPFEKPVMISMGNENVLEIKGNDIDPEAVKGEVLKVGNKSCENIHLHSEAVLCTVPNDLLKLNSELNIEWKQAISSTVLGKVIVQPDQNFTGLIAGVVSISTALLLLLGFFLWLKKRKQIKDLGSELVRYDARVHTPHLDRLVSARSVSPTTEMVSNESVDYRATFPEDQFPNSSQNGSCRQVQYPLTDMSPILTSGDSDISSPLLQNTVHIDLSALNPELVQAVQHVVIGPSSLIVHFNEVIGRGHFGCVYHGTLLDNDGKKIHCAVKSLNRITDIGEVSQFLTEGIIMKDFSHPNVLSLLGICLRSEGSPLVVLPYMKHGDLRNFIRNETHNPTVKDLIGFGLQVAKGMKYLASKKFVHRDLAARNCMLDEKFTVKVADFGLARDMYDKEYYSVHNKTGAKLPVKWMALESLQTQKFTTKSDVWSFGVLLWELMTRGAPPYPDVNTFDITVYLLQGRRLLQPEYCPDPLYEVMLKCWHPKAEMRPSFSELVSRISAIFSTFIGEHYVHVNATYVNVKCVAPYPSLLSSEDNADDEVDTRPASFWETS
Method in brief: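 Recombinant MET kinase (1 ng) phosphorylated biotinylated poly(Glu4:Tyr1) with […] ATP (so in the source) in MOPS pH 7.0 buffer with 10 mM MgCl2, 45 min at 30 °C, stopped with EDTA. Product read by AlphaScreen; IC50 from serial dilutions run in duplicate.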

Structure (SMILES) | IC50 (FLT3 kinase) [nM] | IC50 (PDGFRα kinase) [nM] | IC50 (MET kinase) [nM]
CC1C(=O)N(C)CCN1Cc1ccc(-c2cc3c(s2)Cc2c(-c4ccc5cnn(C)c5c4)n[nH]c2-3)cc1 (stereo not drawn) [Compound 65, 1,3-dimethyl-4-(4-(3-(1-methyl-1H-indazol-6-yl)-1,4-dihydrothieno [2′,3′:4,5]cyclopenta [1,2-c]pyrazol-6-yl)benzyl)piperazin-2-one] | 1 to 10 | 1 to 10 | > 1000
CN(C)C(=O)c1ccc(-c2cc3c(s2)Cc2c(-c4ccc5cnn(C)c5c4)n[nH]c2-3)cc1 [Compound 49, N,N-dimethyl-4-(3-(1-methyl-1H-indazol-6-yl)-1,4-dihydrothieno [2′,3′:4,5]cyclopenta [1,2-c]pyrazol-6-yl) benzamide] | < 1 | 1 to 10 | > 1000
Cn1ncc2ccc(-c3n[nH]c4c3Cc3sc(-c5ccc(C(=O)N6CCCCC6)cc5)cc3-4)cc21 [Compound 34, (4-(3-(1-methyl-1H-indazol-6-yl)-1,4-dihydro-thieno[2′,3′:4,5]cyclopenta [1,2-c]pyrazol-6-yl)phenyl)(piperidin-1-yl) methanone] | 1 to 10 | 30 to 100 | > 1000
Cn1ncc2ccc(-c3n[nH]c4c3Cc3sc(-c5ccc(CN6CCOCC6)c(C(F)(F)F)c5)cc3-4)cc21 [Compound 27, 4-(4-(3-(1-methyl-1H-indazol-6-yl)-1,4-dihydrothieno[2′,3′:4,5]cyclopenta[1,2-c]pyrazol-6-yl)-2-(trifluoromethyl)benzyl)morpholine] | 1 to 10 | 100 to 300 | > 1000
Cn1ncc2ccc(-c3n[nH]c4c3Cc3sc(-c5ccc(C(=O)N6CCOCC6)nc5)cc3-4)cc21 [Compound 23, (5-(3-(1-methyl-1H-indazol-6-yl)-1,4-dihydro-thieno[2′,3′:4,5]cyclopenta [1,2-c]pyrazol-6-yl)pyridin-2-yl)(morpholino) methanone] | < 1 | 1 to 10 | > 1000
C[C@H]1COCCN1Cc1ccc(-c2cc3c(s2)Cc2c(-c4ccc5cnn(C)c5c4)n[nH]c2-3)cc1 [Compound 75, (S)-3-methyl-4-(4-(3-(1-methyl-1H-indazol-6-yl)-1,4-dihydrothieno [2′,3′:4,5]cyclopenta [1,2-c]pyrazol-6-yl)benzyl)morpholine] | < 1 | 1 to 10 | > 1000
Cn1ncc2ccc(-c3n[nH]c4c3Cc3sc(-c5ccc(C(=O)N6CCOCC6)c(F)c5)cc3-4)cc21 [Compound 44, (2-fluoro-4-(3-(1-methyl-1H-indazol-6-yl)-1,4-dihydrothieno[2′,3′:4,5]cyclopenta[1,2-c]pyrazol-6-yl)phenyl)(morpholino) methanone] | < 1 | 1 to 10 | > 1000
Cn1ncc2ccc(-c3n[nH]c4c3Cc3sc(-c5ccc(CN6CC7(COC7)C6)cc5)cc3-4)cc21 [Compound 102, 6-(4-(3-(1-methyl-1H-indazol-6-yl)-1,4-dihydro-thieno[2′,3′:4,5]cyclopenta [1,2-c]pyrazol-6-yl)benzyl)-2-oxa-6-azaspiro [3.3]heptane] | < 1 | 1 to 10 | 300 to 1000
c1cc(-c2cc3c(s2)Cc2c(-c4ccc5cn[nH]c5c4)n[nH]c2-3)ccc1CN1CCOCC1 [Compound 6, 4-(4-(3-(1H-indazol-6-yl)-1,4-dihydrothieno[2′,3′:4,5]cyclopenta[1,2-c]pyrazol-6-yl)benzyl)morpholine] | < 1 | 1 to 10 | > 1000

The remaining lines, values ahead:

IC50 (FLT3 kinase) [nM] | IC50 (PDGFRα kinase) [nM] | IC50 (MET kinase) [nM] | Structure (SMILES)
< 1 | 10 to 30 | > 1000 | Cn1ncc2ccc(-c3n[nH]c4c3Cc3sc(-c5ccc(CN6CCOCC6)cc5F)cc3-4)cc21 [Compound 32, 4-(3-fluoro-4-(3-(1-methyl-1H-indazol-6-yl)-1,4-dihydrothieno [2′,3′:4,5]cyclopenta [1,2-c]pyrazol-6-yl)benzyl)morpholine]
1 to 10 | 30 to 100 | > 1000 | Cn1ncc2ccc(-c3n[nH]c4c3Cc3sc(C5CCN(C(=O)OC(C)(C)C)CC5)cc3-4)cc21 [Compound 58, tert-butyl-4-(3-(1-methyl-1H-indazol-6-yl)-1,4-dihydrothieno[2′,3′:4,5]cyclopenta[1,2-c]pyrazol-6-yl)piperidine-1-carboxylate]
< 1 | 1 to 10 | > 1000 | Cn1ncc2ccc(-c3n[nH]c4c3Cc3sc(-c5csc(C(=O)N6CCOCC6)n5)cc3-4)cc21 [Compound 60, (4-(3-(1-methyl-1H-indazol-6-yl)-1,4-dihydro-thieno[2′,3′:4,5]cyclopenta [1,2-c]pyrazol-6-yl)thiazol-2-yl)(morpholino) methanone]
< 1 | 1 to 10 | > 1000 | Cn1ncc2ccc(-c3n[nH]c4c3Cc3sc(-c5ccc(CN6CCOCC6=O)cc5)cc3-4)cc21 [Compound 59, 4-(4-(3-(1-methyl-1H-indazol-6-yl)-1,4-dihydro-thieno[2′,3′:4,5]cyclopenta [1,2-c]pyrazol-6-yl)benzyl)morpholin-3-one]
1 to 10 | 100 to 300 | > 1000 | Cn1ncc2ccc(-c3n[nH]c4c3Cc3sc(-c5ccc(C=C6CCOCC6)cc5)cc3-4)cc21 [Compound 76, 3-(1-methyl-1H-indazol-6-yl)-6-(4-((tetrahydro-4H-pyran-4-ylidene)methyl)phenyl)-1,4-dihydrothieno[2′,3′:4,5] cyclopenta[1,2-c]pyrazole]
< 1 | 1 to 10 | > 1000 | Cn1ncc2ccc(-c3n[nH]c4c3Cc3sc(N5CCOCC5=O)cc3-4)cc21 [Compound 79, 4-(3-(1-methyl-1H-indazol-6-yl)-1,4-dihydro-thieno[2′,3′:4,5]cyclopenta [1,2-c]pyrazol-6-yl) morpholin-3-one]
1 to 10 | 10 to 30 | > 1000 | Cc1ccc(-c2cc3c(s2)Cc2c(-c4ccc5cnn(C)c5c4)n[nH]c2-3)cn1 [Compound 11, 3-(1-methyl-1H-indazol-6-yl)-6-(6-methylpyridin-3-yl)-1,4-dihydrothieno [2′,3′:4,5]cyclopenta[1,2-c] pyrazole]
1 to 10 | 10 to 30 | > 1000 | Cn1ncc2ccc(-c3n[nH]c4c3Cc3sc(-c5ccc(CN6CCC(F)(F)C6)cc5)cc3-4)cc21 [Compound 67, 6-(4-((3,3-difluoro-pyrrolidin-1-yl)methyl)phenyl)-3-(1-methyl-1H-indazol-6-yl)-1,4-dihydro-thieno[2′,3′:4,5]cyclopenta [1,2-c]pyrazole]
< 1 | 100 to 300 | > 1000 | Cn1ncc2ccc(-c3n[nH]c4c3Cc3sc(-c5cncc(C(=O)N6CCOCC6)c5)cc3-4)cc21 [Compound 31, (5-(3-(1-methyl-1H-indazol-6-yl)-1,4-dihydrothieno[2′,3′:4,5]cyclopenta[1,2-c]pyrazol-6-yl)pyridin-3-yl) (morpholino)methanone]
< 1 | 1 to 10 | > 1000 | Cn1ncc2ccc(-c3n[nH]c4c3Cc3sc(C5CCN(C(=O)CN6CCOCC6)CC5)cc3-4)cc21 [Compound 98, 1-(4-(3-(1-methyl-1H-indazol-6-yl)-1,4-dihydro-thieno[2′,3′:4,5]cyclopenta [1,2-c]pyrazol-6-yl)piperidin-1-yl)-2-morpholinoethan-1-one]
1 to 10 | 1 to 10 | > 1000 | C[C@@H]1CN(Cc2ccc(-c3cc4c(s3)Cc3c(-c5ccc6cn[nH]c6c5)n[nH]c3-4)cc2)C[C@H](C)O1 [Compound 7, (2S,6R)-4-(4-(3-(1H-indazol-6-yl)-1,4-dihydrothieno[2′,3′:4,5]cyclopenta [1,2-c]pyrazol-6-yl)benzyl)-2,6-dimethylmorpholine]
< 1 | 10 to 30 | > 1000 | Cn1ncc2ccc(-c3n[nH]c4c3Cc3sc(-c5cnc(N)nc5)cc3-4)cc21 [Compound 45, 5-(3-(1-methyl-1H-indazol-6-yl)-1,4-dihydrothieno [2′,3′:4,5]cyclopenta[l,2-c]pyrazol-6-yl)pyrimidin-2-amine]
